Test results: US20220362353A1, “DRUG COMBINATION FOR PREVENTING OR TREATING IRRITABLE BOWEL SYNDROME” (GUANGZHOU CENTURY CLINICAL RESEARCH CO., LTD, priority 2019, published 2022)

Tests used:
[1] = tested on: irritable bowel syndrome model animals; assay: Electromyography (EMG) test of external oblique abdominal muscles after colorectal distension; type: in vivo, SD rats (Sprague-Dawley rats); details: for AUC (%) of EMG of colorectal distension at different pressures (mean ± SD): 3 months old, after 1-month daily gavage, normalized to average baseline amplitude (100%)
Experimental: In this example, the irritable bowel syndrome model was induced by daily applying colorectal distension as a stimulating factor to neonatal SD rats (Sprague-Dawley rats) from 8 days old to 21 days old. This model animal had visceral hypersensitivity of irritable bowel syndrome and without colonitis and mucosal injury. Colorectal distension stimulation was not given any more from 21 days old to 8 weeks old. A test drug or placebo was administered daily by gavage from 8 weeks old to 3 months old. On the 8 weeks old (before the beginning of the 1-month drug administration period) and about 3 months old (after the end of the 1-month drug administration period), behavioral and neural responses of rats to colorectal distention stimulation were tested by an abdominal wall withdrawal reflex test and an electromyography test. 8-day-old neonatal male SD rats with normal body weight were exposed to a 12:12 hr light-dark cycle. Every 12 neonatal rats and 1 adult female rat were co-bred with rat milk until 25 days old. Then every 4 neonatal rats were fed in the same cage, and they were allowed to eat and drink freely. The SD rats were randomly divided into a normal control group, a model group, a dosmalfate group, a lysozyme group, a first combination group (a dosage ratio of dosmalfate to lysozyme was 0.05:1), a second combination group (a dosage ratio of dosmalfate to lysozyme was 0.1:1), a third combination group (a dosage ratio of dosmalfate to lysozyme was 10:1), and a fourth combination group (a dosage ratio of dosmalfate to lysozyme was 20:1), and 12 animals were assigned to each group. Except for normal control group, colorectal distension (CRD) stimulation was applied to the rats in other groups every day from 8 days old to 21 days old to induce irritable bowel syndrome. The concrete operation method was as follows: a flexible balloon (with a polytetrafluoroethylene catheter; the balloon should be inflated overnight before the experiment so that it has better compliance) made of the fingers of surgical gloves, was smeared with vaseline, inserted from the anus of the rat to the colon and then fixed at the tail distanced away from the anus by 2 cm. The balloon was connected with a valve via the catheter, and the valve was additionally connected with a sphygmomanometer. Rats were placed in small plastic cages to restrict their turning and acclimatized for 30 minutes. The balloon was slowly inflated to 60 mm Hg with the sphygmomanometer, and deflated after stimulation for 20 seconds; the stimulation was repeated twice within 1 hour (with an interval of 30 minutes each time). Except for normal control group and model group, test drugs (wetted in 0.5% sodium carboxymethyl cellulose solution) were administrated to the rats in the other groups by gavage daily from 8 weeks old to 3 months old, and the dosage was 8 ml. The visceral hypersensitivity (neural response) of rats to colorectal distension was quantified by measuring the electromyographic activity of external oblique abdominal muscles. When the rats in each group were 3 months old (after the end of the 1-month drug administration period), they were subjected to abdominal wall withdrawal reflex test followed by EMG test after abdominal wall withdrawal reflex test. On the second day when 3-month-old rats in each group were subjected to abdominal wall withdrawal reflex test, an appropriate amount of pentobarbital solution (50 mg/ml) was injected into the abdominal cavities of the rats, and the rats were fully anesthetized. The hairs on the lower abdomen and the back of the neck were cut, a needle electrode (tungsten microelectrode) was implanted into the left side of the abdomen of the rat, fixed in the muscle layer of the external oblique abdominal muscle, and the electrode wire was crossed through the subcutaneous of the left side of the rat to a small incision at the rear neck and out of the small incision. […]

[2] = tested on: irritable bowel syndrome model animals; assay: Abdominal withdrawal reflex (AWR) test after colorectal distension; type: in vivo, SD rats (Sprague-Dawley rats); details: for Abdominal withdrawal reflex scores of colorectal distension at different pressures (mean ± SD): 3 months old, after 1-month daily gavage, score 0-4
Experimental: In this example, the irritable bowel syndrome model was induced by daily applying colorectal distension as a stimulating factor to neonatal SD rats (Sprague-Dawley rats) from 8 days old to 21 days old. This model animal had visceral hypersensitivity of irritable bowel syndrome and without colonitis and mucosal injury. Colorectal distension stimulation was not given any more from 21 days old to 8 weeks old. A test drug or placebo was administered daily by gavage from 8 weeks old to 3 months old. On the 8 weeks old (before the beginning of the 1-month drug administration period) and about 3 months old (after the end of the 1-month drug administration period), behavioral and neural responses of rats to colorectal distention stimulation were tested by an abdominal wall withdrawal reflex test and an electromyography test. 8-day-old neonatal male SD rats with normal body weight were exposed to a 12:12 hr light-dark cycle. Every 12 neonatal rats and 1 adult female rat were co-bred with rat milk until 25 days old. Then every 4 neonatal rats were fed in the same cage, and they were allowed to eat and drink freely. The SD rats were randomly divided into a normal control group, a model group, a dosmalfate group, a lysozyme group, a first combination group (a dosage ratio of dosmalfate to lysozyme was 0.05:1), a second combination group (a dosage ratio of dosmalfate to lysozyme was 0.1:1), a third combination group (a dosage ratio of dosmalfate to lysozyme was 10:1), and a fourth combination group (a dosage ratio of dosmalfate to lysozyme was 20:1), and 12 animals were assigned to each group. Except for normal control group, colorectal distension (CRD) stimulation was applied to the rats in other groups every day from 8 days old to 21 days old to induce irritable bowel syndrome. The concrete operation method was as follows: a flexible balloon (with a polytetrafluoroethylene catheter; the balloon should be inflated overnight before the experiment so that it has better compliance) made of the fingers of surgical gloves, was smeared with vaseline, inserted from the anus of the rat to the colon and then fixed at the tail distanced away from the anus by 2 cm. The balloon was connected with a valve via the catheter, and the valve was additionally connected with a sphygmomanometer. Rats were placed in small plastic cages to restrict their turning and acclimatized for 30 minutes. The balloon was slowly inflated to 60 mm Hg with the sphygmomanometer, and deflated after stimulation for 20 seconds; the stimulation was repeated twice within 1 hour (with an interval of 30 minutes each time). Except for normal control group and model group, test drugs (wetted in 0.5% sodium carboxymethyl cellulose solution) were administrated to the rats in the other groups by gavage daily from 8 weeks old to 3 months old, and the dosage was 8 ml. The abdominal wall withdrawal reflex test was used to detect behavioral responses of rats to colorectal distension stimulation. This test was performed when rats in respective groups were 8 weeks old (before the start of the 1-month drug administration period) and 3 months old (after the end of the 1-month drug administration period). The rats were fasted overnight before undergoing the abdominal wall withdrawal reflex test, so as to reduce gastrointestinal contents. During the test, a flexible balloon (with a thin-walled polytetrafluoroethylene catheter; the balloon should be inflated overnight before the experiment so that it has better compliance) made of the fingers of surgical gloves, was smeared with vaseline and inserted from the anus of the rat by 7 cm to the colon and fixed at the caudal point by 2 cm distanced away from the anus. The balloon was connected with the valve via the catheter, and the valve was additionally connected with a sphygmomanometer. Rats were placed in small plastic cages to restrict their turning and acclimatized for 30 minutes. […]

| Substance | AUC (%) of EMG of colorectal distension at different pressures (mean ± SD) ([1]; 20 mm Hg) [%] | AUC (%) of EMG of colorectal distension at different pressures (mean ± SD) ([1]; 40 mm Hg) [%] | AUC (%) of EMG of colorectal distension at different pressures (mean ± SD) ([1]; 60 mm Hg) | Abdominal withdrawal reflex scores of colorectal distension at different pressures (mean ± SD) ([2]; 20 mm Hg) | Abdominal withdrawal reflex scores of colorectal distension at different pressures (mean ± SD) ([2]; 40 mm Hg) | Abdominal withdrawal reflex scores of colorectal distension at different pressures (mean ± SD) ([2]; 60 mm Hg) | EMG test result compared with model group, in words ([1]; after administration) | abdominal wall withdrawal reflex values compared with model group, in words ([2]; after administration) |
| --- | --- | --- | --- | --- | --- | --- | --- | --- |
| diosmin heptadiene (bisulfate) aluminum complex [Dosmalfate, reference compound] | 332 ± 39 | 445 ± 99 | 644 ± 117 ^ % | 2.25 ± 0.45 | 2.56 ± 0.30 | 3.64 ± 0.30 | – | – |
| Lysozyme | 303 ± 36 | 394 ± 60 | 601 ± 60 ^ % | 2.11 ± 0.33 | 2.69 ± 0.41 | 3.56 ± 0.36 | no significant difference | no significant difference |
